Measurements as given in patent US20240139211A1, “METHODS AND COMPOSITIONS FOR TREATING AMYOTROPHIC LATERAL SCLEROSIS” (Amylyx Pharmaceuticals, Inc., priority 2022, published 2024).
Read-outs that look alike come from different tables or passages of the source.

Key:
CYP3A4/5 = CYP3A4/5 enzyme activity induction in hepatocyte cultures
BCRP = target: T1, BCRP (Homo sapiens, UniProt Q9UNQ0); assay: in vitro; details: Caco-2 cells, probe 3H-estrone-3-sulfate
T1 sequence (Q9UNQ0 1-655): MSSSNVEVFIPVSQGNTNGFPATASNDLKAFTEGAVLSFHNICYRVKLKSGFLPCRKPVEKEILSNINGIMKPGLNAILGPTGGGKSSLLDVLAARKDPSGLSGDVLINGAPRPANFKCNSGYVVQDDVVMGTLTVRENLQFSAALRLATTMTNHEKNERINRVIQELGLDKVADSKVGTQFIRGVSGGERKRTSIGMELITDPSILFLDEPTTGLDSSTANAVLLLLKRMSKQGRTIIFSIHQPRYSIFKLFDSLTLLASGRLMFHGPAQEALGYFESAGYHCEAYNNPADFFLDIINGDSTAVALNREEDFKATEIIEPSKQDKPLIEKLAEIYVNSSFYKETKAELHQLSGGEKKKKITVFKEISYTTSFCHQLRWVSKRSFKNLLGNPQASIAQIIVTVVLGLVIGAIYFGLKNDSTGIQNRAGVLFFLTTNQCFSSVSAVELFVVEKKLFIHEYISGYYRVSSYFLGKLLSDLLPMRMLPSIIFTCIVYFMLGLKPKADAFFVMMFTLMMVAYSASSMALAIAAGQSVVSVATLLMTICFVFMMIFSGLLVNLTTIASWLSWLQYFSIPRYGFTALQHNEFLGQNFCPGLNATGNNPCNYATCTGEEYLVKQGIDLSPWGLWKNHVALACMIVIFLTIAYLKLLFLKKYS

CYP1A2 = CYP1A2 enzyme activity induction in hepatocyte cultures
OATP1B3 = OATP1B3 (Homo sapiens, UniProt Q9NPD5); assay: in vitro
CYP3A4 mRNA = assay: in vitro; details: human, hepatocyte cultures
MATE2K = MATE2K (Homo sapiens, UniProt Q86VL8); assay: MATE2K inhibition, metformin uptake in transfected HEK cells; details: read-out: Estimated IC50 toward MATE2K; TUDCA and PB present simultaneously
OAT1 = target: T2, OAT1 (Homo sapiens, UniProt Q4U2R8); assay: OAT1 inhibition, PAH uptake in transfected HEK cells
T2 sequence (Q4U2R8 1-563): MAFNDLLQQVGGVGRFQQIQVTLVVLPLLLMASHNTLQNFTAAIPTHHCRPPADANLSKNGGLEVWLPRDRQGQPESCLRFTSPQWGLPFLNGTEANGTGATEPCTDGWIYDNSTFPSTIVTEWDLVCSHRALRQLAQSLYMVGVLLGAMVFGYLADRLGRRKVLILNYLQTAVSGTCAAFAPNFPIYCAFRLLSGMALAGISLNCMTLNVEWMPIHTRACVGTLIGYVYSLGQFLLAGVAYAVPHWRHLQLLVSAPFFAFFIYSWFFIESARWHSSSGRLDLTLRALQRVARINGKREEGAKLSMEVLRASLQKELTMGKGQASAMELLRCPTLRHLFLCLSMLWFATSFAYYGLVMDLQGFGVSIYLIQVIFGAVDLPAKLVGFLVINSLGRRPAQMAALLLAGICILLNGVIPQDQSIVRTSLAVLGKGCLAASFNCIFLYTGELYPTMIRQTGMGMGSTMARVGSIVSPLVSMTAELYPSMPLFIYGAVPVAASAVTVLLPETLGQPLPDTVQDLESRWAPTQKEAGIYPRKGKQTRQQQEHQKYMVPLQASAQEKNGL

OCT2 = target: T3, OCT2 (Homo sapiens, UniProt O15244); assay: OCT2 inhibition, MPP+ uptake in transfected HEK cells; details: read-out: Estimated IC50 toward OCT2; TUDCA and PB present simultaneously
T3 sequence (O15244 1-555): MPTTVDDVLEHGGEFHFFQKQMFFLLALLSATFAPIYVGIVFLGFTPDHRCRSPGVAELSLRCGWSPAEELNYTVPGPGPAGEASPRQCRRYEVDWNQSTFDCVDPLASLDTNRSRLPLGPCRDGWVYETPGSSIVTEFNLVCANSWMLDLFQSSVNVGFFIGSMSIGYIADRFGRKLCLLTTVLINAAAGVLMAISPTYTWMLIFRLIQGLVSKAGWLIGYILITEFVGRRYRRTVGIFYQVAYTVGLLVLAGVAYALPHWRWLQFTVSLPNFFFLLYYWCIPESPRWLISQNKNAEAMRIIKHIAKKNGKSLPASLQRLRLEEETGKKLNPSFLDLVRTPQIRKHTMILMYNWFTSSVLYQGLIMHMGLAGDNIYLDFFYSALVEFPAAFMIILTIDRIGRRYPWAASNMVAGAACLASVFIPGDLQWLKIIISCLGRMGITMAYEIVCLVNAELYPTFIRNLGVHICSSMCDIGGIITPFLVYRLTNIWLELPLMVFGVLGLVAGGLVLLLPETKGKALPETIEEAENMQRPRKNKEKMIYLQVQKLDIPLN

human plasma protein = assay: Human plasma protein binding; type: in vitro ADME
in vivo = details: male, CD (Sprague-Dawley) IGS, rat, po, 840 mg/kg
[1] = male, CD (Sprague-Dawley) IGS, rat, in vivo

Chain of OATP1B3 (Q9NPD5 whole entry): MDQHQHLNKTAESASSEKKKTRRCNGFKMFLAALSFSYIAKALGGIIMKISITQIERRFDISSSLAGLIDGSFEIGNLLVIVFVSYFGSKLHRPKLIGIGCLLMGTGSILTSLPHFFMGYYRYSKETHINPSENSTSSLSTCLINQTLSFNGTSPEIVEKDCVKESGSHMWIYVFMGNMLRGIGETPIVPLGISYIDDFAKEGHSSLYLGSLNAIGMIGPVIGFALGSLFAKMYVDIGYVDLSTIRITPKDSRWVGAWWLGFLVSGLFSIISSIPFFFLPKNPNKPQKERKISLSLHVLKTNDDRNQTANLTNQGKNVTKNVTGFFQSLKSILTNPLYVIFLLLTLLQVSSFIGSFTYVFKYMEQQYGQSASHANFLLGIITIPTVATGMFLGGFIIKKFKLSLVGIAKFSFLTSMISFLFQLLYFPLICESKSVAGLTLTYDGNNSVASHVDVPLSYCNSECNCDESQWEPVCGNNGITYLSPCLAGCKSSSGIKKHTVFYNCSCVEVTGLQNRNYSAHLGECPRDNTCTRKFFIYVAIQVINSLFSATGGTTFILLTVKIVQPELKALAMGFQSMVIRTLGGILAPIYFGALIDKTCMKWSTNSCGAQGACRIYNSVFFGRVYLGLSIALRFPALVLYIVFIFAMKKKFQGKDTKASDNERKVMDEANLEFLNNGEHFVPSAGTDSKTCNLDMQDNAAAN
Chain of MATE2K (Q86VL8 1-566 isoform Q86VL8-3): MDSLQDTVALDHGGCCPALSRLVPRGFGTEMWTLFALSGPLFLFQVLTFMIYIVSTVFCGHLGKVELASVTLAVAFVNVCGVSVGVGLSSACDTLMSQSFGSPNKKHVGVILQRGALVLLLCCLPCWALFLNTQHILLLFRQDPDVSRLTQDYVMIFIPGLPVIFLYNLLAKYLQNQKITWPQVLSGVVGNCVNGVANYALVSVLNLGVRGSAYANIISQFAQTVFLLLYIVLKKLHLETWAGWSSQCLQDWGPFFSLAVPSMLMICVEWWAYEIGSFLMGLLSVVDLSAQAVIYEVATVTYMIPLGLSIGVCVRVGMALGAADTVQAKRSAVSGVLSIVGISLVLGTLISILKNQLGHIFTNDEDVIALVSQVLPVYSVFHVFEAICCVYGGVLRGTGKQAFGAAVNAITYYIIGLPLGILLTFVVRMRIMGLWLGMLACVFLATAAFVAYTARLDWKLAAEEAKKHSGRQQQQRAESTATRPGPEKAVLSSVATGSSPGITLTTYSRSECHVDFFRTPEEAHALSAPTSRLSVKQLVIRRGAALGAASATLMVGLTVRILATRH

C[C@H](CCC(=O)NCC(=O)O)[C@H]1CC[C@H]2[C@@H]3[C@@H](O)C[C@@H]4C[C@H](O)CC[C@]4(C)[C@H]3CC[C@]12C [Glycoursodeoxycholic acid, glycoursodeoxycholic acid]
Maximum fold induction of CYP3A4/5 activity (CYP3A4/5; Donor 1): 1.34 fold | Maximum fold induction of CYP3A4/5 activity (CYP3A4/5; Donor 2): 1.98 fold | Maximum fold induction of CYP3A4/5 activity (CYP3A4/5; Donor 3): 2.70 fold | potency estimated from few doses (BCRP): > 100 µM | Maximum fold induction of CYP1A2 activity (CYP1A2; Donor 1, 72±2 h, three concentrations): 5.93 fold | Maximum fold induction of CYP1A2 activity (CYP1A2; Donor 2): 3.08 fold | Maximum fold induction of CYP1A2 activity (CYP1A2; Donor 3): 9.43 fold | potency estimated from few doses (OATP1B3): < 100 µM | fold induction at 72 h (CYP3A4 mRNA): 2.44 | Maximum fold induction of CYP2B6 activity (CYP2B6; Donor 1): 1.50 fold | Maximum fold induction of CYP2B6 activity (CYP2B6; Donor 2): 2.81 fold | Maximum fold induction of CYP2B6 activity (CYP2B6; Donor 3): 1.52 fold

tauroursodeoxycholic acid [TUDCA]
IC50 (MATE2K): > 810 µM | IC50 for in vitro inhibition of human OAT1 (OAT1; previous study, converted): 0.035 to 0.111 µg/mL | IC50 (OAT1; read-out: IC50 for in vitro inhibition of human OAT1, previous study (Example 6)): 0.074 to 0.222 µM | IC50 (OCT2): > 162 µM | Human Plasma Protein Binding (%) (human plasma protein): 98.5%

O=C(O)CCCc1ccccc1 [PB, sodium phenylbutyrate]
Tmax (in vivo): 15 to 30 min | Time through which plasma concentrations remained quantifiable [1]: 4 h
